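How tested: cells in 96-well plates exposed to compound for 48 hours at five concentrations. Abbreviation: GI50, concentration required for 50% inhibition of growth.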 Active and inactive are the calls of the source. No stated cut-off is given here; in the data, active = GI50 up to about 1.1 µM and inactive = higher.
Key:
Test in all cases: DTP human tumour cell line panel, 48 h
[1] = tested on: ACHN
[2] = tested on: CCRF-CEM
[3] = tested on: DU-145
[4] = tested on: EKVX
[5] = tested on: HCC 2998
[6] = tested on: HCT-15
[7] = tested on: HT-29
[8] = tested on: M14
[9] = tested on: MDA-MB-231
[10] = tested on: MDA-N
[11] = tested on: Malme-3M
[12] = tested on: NCI-H522
[13] = tested on: OVCAR-3
[14] = tested on: PC-3
[15] = tested on: RXF 393
[16] = tested on: SF-295
[17] = tested on: SF-539
[18] = tested on: SK-MEL-5
[19] = tested on: TK-10
[20] = tested on: XF498

SMILES	GI50 [1]	GI50 [2]	GI50 [3]	GI50 [4]	GI50 [5]	GI50 [6] [µM]	GI50 [7]	GI50 [8]	GI50 [9]	GI50 [10]	GI50 [11]	GI50 [12]	GI50 [13]	GI50 [14]	GI50 [15]	GI50 [16]	GI50 [17]	GI50 [18]	GI50 [19]	GI50 [20]
CN(C)c1ccc(C=c2c3ccccc3n3c2cc(-c2ccc(Cl)cc2)[n+]3C)cc1	0.514 µM (active)	0.0649 µM (active)	0.177 µM (active)	0.617 µM (active)	0.603 µM (active)	1.47	0.315 µM (active)	0.301 µM (active)	0.217 µM (active)	0.327 µM (active)	0.333 µM (active)	0.0577 µM (active)	0.295 µM (active)	0.167 µM (active)	0.822 µM (active)	0.501 µM (active)	0.228 µM (active)	0.167 µM (active)	0.578 µM (active)	–
N#CC(C(=O)/C(=N/N)C(C#N)c1ccc(Cl)cc1)c1ccc(Cl)cc1 (stereo not drawn)	> 100 µM (inactive)	> 100 µM (inactive)	–	> 100 µM (inactive)	> 100 µM (inactive)	> 100	> 100 µM (inactive)	> 100 µM (inactive)	–	–	> 100 µM (inactive)	> 100 µM (inactive)	> 100 µM (inactive)	–	> 100 µM (inactive)	> 100 µM (inactive)	> 100 µM (inactive)	> 100 µM (inactive)	> 100 µM (inactive)	57.3 µM (inactive)
C/C(=N\OCC(O)CNCCSCc1ccccc1)c1ccccc1Cl (stereo not drawn)	18.1 µM (inactive)	28.6 µM (inactive)	23.3 µM (inactive)	20 µM (inactive)	19.4 µM (inactive)	18.2	20.6 µM (inactive)	21.8 µM (inactive)	18 µM (inactive)	19.6 µM (inactive)	19.8 µM (inactive)	28.7 µM (inactive)	17.9 µM (inactive)	18.5 µM (inactive)	18.7 µM (inactive)	18.6 µM (inactive)	19.5 µM (inactive)	17.1 µM (inactive)	17 µM (inactive)	–
Clc1ccccc1C1SCc2nc3ccccc3n21 (stereo not drawn)	22.1 µM (inactive)	30.3 µM (inactive)	–	22.6 µM (inactive)	–	22.6	29.4 µM (inactive)	19.1 µM (inactive)	–	–	17.7 µM (inactive)	9.55 µM (inactive)	14.1 µM (inactive)	–	24.5 µM (inactive)	28.8 µM (inactive)	33.5 µM (inactive)	17.9 µM (inactive)	23 µM (inactive)	30.3 µM (inactive)
C=C(COC(C)=O)CC(/C=C(\C)CCC=C(C)C)OC(C)=O (stereo not drawn)	> 100 µM (inactive)	70.5 µM (inactive)	–	> 100 µM (inactive)	> 100 µM (inactive)	> 100	> 100 µM (inactive)	> 100 µM (inactive)	–	–	–	> 100 µM (inactive)	> 100 µM (inactive)	–	> 100 µM (inactive)	> 100 µM (inactive)	> 100 µM (inactive)	> 100 µM (inactive)	> 100 µM (inactive)	47.6 µM (inactive)
CC(C)=CC(=O)C1c2cccc(O)c2C(=O)c2c(O)cc(C)cc21 (stereo not drawn)	2.12 µM (inactive)	2.55 µM (inactive)	–	12.6 µM (inactive)	1.2 µM (inactive)	3.24	6.97 µM (inactive)	3.25 µM (inactive)	–	–	2.76 µM (inactive)	2 µM (inactive)	1.99 µM (inactive)	–	2.16 µM (inactive)	1.84 µM (inactive)	1.56 µM (inactive)	2.05 µM (inactive)	2.42 µM (inactive)	1.54 µM (inactive)
CCOC(=N)CC(=O)c1ccccc1	> 100 µM (inactive)	> 100 µM (inactive)	–	> 100 µM (inactive)	> 100 µM (inactive)	–	> 100 µM (inactive)	> 100 µM (inactive)	–	–	> 100 µM (inactive)	> 100 µM (inactive)	> 100 µM (inactive)	–	> 100 µM (inactive)	> 100 µM (inactive)	> 100 µM (inactive)	> 100 µM (inactive)	> 100 µM (inactive)	> 100 µM (inactive)
COC1OC(COCc2ccc(Cl)cc2)C(OCc2ccc(Cl)cc2)C1O (stereo not drawn)	18.6 µM (inactive)	19.4 µM (inactive)	–	19.4 µM (inactive)	17.7 µM (inactive)	16	17.9 µM (inactive)	16.1 µM (inactive)	–	–	15.8 µM (inactive)	12.8 µM (inactive)	19.7 µM (inactive)	–	15.1 µM (inactive)	18 µM (inactive)	16.3 µM (inactive)	15.3 µM (inactive)	25.5 µM (inactive)	3.07 µM (inactive)
O=C(CCn1[nH]c(=O)c(Cl)c(Cl)c1=O)NO	> 100 µM (inactive)	> 100 µM (inactive)	–	> 100 µM (inactive)	> 100 µM (inactive)	> 100	> 100 µM (inactive)	> 100 µM (inactive)	–	–	> 100 µM (inactive)	> 100 µM (inactive)	> 100 µM (inactive)	–	> 100 µM (inactive)	> 100 µM (inactive)	> 100 µM (inactive)	> 100 µM (inactive)	> 100 µM (inactive)	> 100 µM (inactive)
CCn1c(=N)sc2nc3ccccc3n2c1=O	> 100 µM (inactive)	90.8 µM (inactive)	> 100 µM (inactive)	> 100 µM (inactive)	> 100 µM (inactive)	> 100	> 100 µM (inactive)	> 100 µM (inactive)	> 100 µM (inactive)	> 100 µM (inactive)	> 100 µM (inactive)	> 100 µM (inactive)	> 100 µM (inactive)	> 100 µM (inactive)	> 100 µM (inactive)	> 100 µM (inactive)	> 100 µM (inactive)	> 100 µM (inactive)	> 100 µM (inactive)	–
C=C(CS(=O)(=O)c1ccccc1)[P+](c1ccccc1)(c1ccccc1)c1ccccc1	21.7 µM (inactive)	5.22 µM (inactive)	–	30.4 µM (inactive)	20.8 µM (inactive)	23.6	18.2 µM (inactive)	17.4 µM (inactive)	–	–	12.1 µM (inactive)	18.6 µM (inactive)	14.8 µM (inactive)	–	19.2 µM (inactive)	20.2 µM (inactive)	23.5 µM (inactive)	13.6 µM (inactive)	31.4 µM (inactive)	15 µM (inactive)
Cc1cc(=O)n2nc(CCl)sc2n1	14.3 µM (inactive)	6.62 µM (inactive)	18.1 µM (inactive)	17.4 µM (inactive)	16 µM (inactive)	13.6	14.8 µM (inactive)	11.2 µM (inactive)	20.7 µM (inactive)	14 µM (inactive)	12.8 µM (inactive)	5.57 µM (inactive)	14.9 µM (inactive)	13.3 µM (inactive)	5.94 µM (inactive)	19.3 µM (inactive)	18.7 µM (inactive)	10.6 µM (inactive)	10.2 µM (inactive)	–
O=C(NCCOC(=O)OCCNC(=O)NC1CCCCC1)NC1CCCCC1	> 100 µM (inactive)	> 100 µM (inactive)	> 100 µM (inactive)	> 100 µM (inactive)	> 100 µM (inactive)	> 100	> 100 µM (inactive)	> 100 µM (inactive)	15.8 µM (inactive)	> 100 µM (inactive)	> 100 µM (inactive)	> 100 µM (inactive)	> 100 µM (inactive)	> 100 µM (inactive)	72.6 µM (inactive)	> 100 µM (inactive)	44.3 µM (inactive)	> 100 µM (inactive)	> 100 µM (inactive)	–
COc1ccc2nc(NC(=O)C(=O)CC(=O)c3ccc(Cl)cc3)sc2c1	> 100 µM (inactive)	> 100 µM (inactive)	–	48.1 µM (inactive)	56.9 µM (inactive)	> 100	> 100 µM (inactive)	> 100 µM (inactive)	–	–	> 100 µM (inactive)	92.3 µM (inactive)	> 100 µM (inactive)	–	31.3 µM (inactive)	56.9 µM (inactive)	17.3 µM (inactive)	> 100 µM (inactive)	> 100 µM (inactive)	46.9 µM (inactive)
OC/C=C(\I)CCCOCOCc1ccccc1	32.3 µM (inactive)	20.7 µM (inactive)	–	36.5 µM (inactive)	34 µM (inactive)	38.5	36.2 µM (inactive)	31.1 µM (inactive)	–	–	–	23.3 µM (inactive)	30.8 µM (inactive)	–	16.4 µM (inactive)	36.1 µM (inactive)	50.6 µM (inactive)	22.1 µM (inactive)	> 100 µM (inactive)	14 µM (inactive)
CCCCCCCCCCCCC(Br)C(=O)NCC(N)=O (stereo not drawn)	15 µM (inactive)	2.45 µM (inactive)	–	20.6 µM (inactive)	16.1 µM (inactive)	8.87	15.8 µM (inactive)	11.1 µM (inactive)	–	–	13.2 µM (inactive)	2.28 µM (inactive)	15 µM (inactive)	–	3.6 µM (inactive)	14.3 µM (inactive)	14.4 µM (inactive)	4.57 µM (inactive)	18.1 µM (inactive)	1.37 µM (inactive)
COc1ccc(NC(=O)c2cc(OC)cc(OC)c2)cc1	57.4 µM (inactive)	27.9 µM (inactive)	–	24.2 µM (inactive)	23 µM (inactive)	6.93	4.49 µM (inactive)	47.3 µM (inactive)	–	–	36.6 µM (inactive)	13.6 µM (inactive)	12.1 µM (inactive)	–	17.8 µM (inactive)	17.8 µM (inactive)	25.1 µM (inactive)	9.38 µM (inactive)	43.7 µM (inactive)	> 70.3 µM (inactive)

Source: ChEMBL document CHEMBL1201862, “PubChem BioAssay data set” (2004)
